A word on the MIC: it is the smallest concentration in the dilution series that meets the test's criterion for growth inhibition. For orientation: IC50 means the point on the concentration scale where inhibition reaches its midpoint.

Assay [1] has as its system Escherichia coli. The experiment in a line: Antibacterial activity against Escherichia coli ATCC 25922 assessed as bacterial growth inhibition by agar disc diffusion assay. Format: functional.
For assay [2], the system named is Pseudomonas aeruginosa. The experiment in a line: Antibacterial activity against Pseudomonas aeruginosa ATCC 27853 assessed as bacterial growth inhibition by agar disc diffusion assay. Format: functional. Background: Agar diffusion results depend on both activity and mobility in agar.
In assay [3] the test system is Staphylococcus aureus. As to the kind of experiment: Antibacterial activity against Staphylococcus aureus ATCC 25923 assessed as bacterial growth inhibition by agar disc diffusion assay. Format: functional.
Assay [4] deals with Staphylococcus aureus. As to the kind of experiment: Antibacterial activity against Staphylococcus aureus clinical isolate 1 assessed as bacterial growth inhibition by agar disc diffusion assay. Format: functional.
The test system of assay [5] is Escherichia coli. As to the kind of experiment: Antibacterial activity against Escherichia coli clinical isolate 1 assessed as bacterial growth inhibition by agar disc diffusion assay. Format: functional.
The test system of assay [6] is Pseudomonas aeruginosa. As to the kind of experiment: Antibacterial activity against Pseudomonas aeruginosa clinical isolate 1 assessed as bacterial growth inhibition by agar disc diffusion assay. Format: functional.
Assay [7] relates to Alternaria. The experiment in a line: Antifungal activity against Alternaria assessed as fungal growth inhibition measured after 7 days by agar disc diffusion assay. Format: functional. The following applies: 168 h, time 7 day.
Assay [8] concerns Fusarium oxysporum f. sp. lycopersici. The experiment in a line: Antifungal activity against Fusarium oxysporum f. sp. lycopersici assessed as fungal growth inhibition measured after 7 days by agar disc diffusion assay. Format: functional. The following applies: 168 h, time 7 day.
In assay [9] the test system is Staphylococcus aureus. As to the kind of experiment: Potency index, ratio of ciprofloxacin MIC to test compound MIC for antimicrobial activity against Staphylococcus aureus assessed as bacterial growth inhibition by agar cup diffusion assay. Format: functional.
The subject of assay [10] is Staphylococcus aureus. As to the kind of experiment: Antibacterial activity against Staphylococcus aureus assessed as bacterial growth inhibition by broth microdilution assay. Format: functional. (In general: Dilution methods test growth across graded concentrations, often in twofold steps.)
Assay [11] has as its system Mycobacterium tuberculosis. The experiment in a line: Antimycobacterial activity against Mycobacterium tuberculosis H37Rv assessed as bacterial growth inhibition by broth microdilution assay. Format: functional.
Assay [12] concerns Mycobacterium tuberculosis. The experiment in a line: Potency index, ratio of rifampicin MIC to test compound MIC for antimycobacterial activity against Mycobacterium tuberculosis H37Rv assessed as bacterial growth inhibition by broth microdilution assay. Format: functional.
Assay [13] deals with Mycobacterium tuberculosis. The experiment in a line: Potency index, ratio of isoniazid MIC to test compound MIC for antimycobacterial activity against Mycobacterium tuberculosis H37Rv assessed as bacterial growth inhibition by broth microdilution assay. Format: functional.
The subject of assay [14] is Staphylococcus aureus. As to the kind of experiment: Antibacterial activity against Staphylococcus aureus assessed as bacterial growth inhibition by serial dilution method. Format: functional.
Assay [15] relates to Pseudomonas aeruginosa. The experiment in a line: Antibacterial activity against Pseudomonas aeruginosa assessed as bacterial growth inhibition by serial dilution method. Format: functional.
For assay [16], the system named is Acinetobacter baumannii. As to the kind of experiment: Antibacterial activity against Acinetobacter baumannii assessed as bacterial growth inhibition by serial dilution method. Format: functional.
Assay [17] has as its system Escherichia coli. As to the kind of experiment: Antibacterial activity against Escherichia coli assessed as bacterial growth inhibition by serial dilution method. Format: functional.
For assay [18], the system named is Klebsiella pneumoniae. As to the kind of experiment: Antibacterial activity against Klebsiella pneumoniae assessed as bacterial growth inhibition by serial dilution method. Format: functional.
Assay [19] deals with Pseudomonas aeruginosa. The experiment in a line: Antibacterial activity against Pseudomonas aeruginosa assessed as bacterial growth inhibition by broth microdilution assay. Format: functional.
Assay [20] relates to Escherichia coli. The experiment in a line: Antibacterial activity against Escherichia coli ATCC35218 assessed as bacterial growth inhibition measured after 18 to 24 hrs inhibition by broth microdilution assay. Format: functional. The following applies: time 18-24 hrs.
In assay [21] the test system is Escherichia coli. The experiment in a line: Antibacterial activity against Escherichia coli assessed as bacterial growth inhibition measured after 18 to 24 hrs by two fold serial dilution assay. Format: functional. The following applies: time 18-24 hrs.
For assay [22], the system named is Staphylococcus aureus. As to the kind of experiment: Antibacterial activity against methicillin sensitive Staphylococcus aureus assessed as bacterial growth inhibition measured after 18 to 24 hrs by two fold serial dilution assay. Format: functional. Particulars: time 18-24 hrs.
Assay [23] deals with Klebsiella pneumoniae. The experiment in a line: Antibacterial activity against Klebsiella pneumoniae assessed as bacterial growth inhibition measured after 18 to 24 hrs by two fold serial dilution assay. Particulars: time 18-24 hrs. Format: functional.
In assay [24] the test system is Pseudomonas aeruginosa. The experiment in a line: Antibacterial activity against Pseudomonas aeruginosa assessed as bacterial growth inhibition measured after 18 to 24 hrs by two fold serial dilution assay. Format: functional. The following applies: time 18-24 hrs.
Assay [25] relates to Staphylococcus aureus. As to the kind of experiment: Antibacterial activity against methicillin resistant Staphylococcus aureus assessed as bacterial growth inhibition measured after 24 hrs by serial dilution method. Format: functional.
Assay [26] relates to Escherichia coli. As to the kind of experiment: Antibacterial activity against Escherichia coli assessed as bacterial growth inhibition measured after 24 hrs by serial dilution method. Format: functional.
The subject of assay [27] is Staphylococcus aureus. As to the kind of experiment: Antibacterial activity against ciprofloxacin resistant Staphylococcus aureus assessed as bacterial growth inhibition by broth microdilution assay. Format: functional.
For assay [28], the system named is Escherichia coli. As to the kind of experiment: Antibacterial activity against Escherichia coli ATCC 10536 assessed as bacterial growth inhibition measured after 24 to 48 hrs by agar dilution assay. Format: functional. The following applies: time 24-48 hrs. Background: In agar dilution, organisms are placed on agar that contains the substance at set levels.
Assay [29] deals with Pseudomonas aeruginosa. The experiment in a line: Antibacterial activity against Pseudomonas aeruginosa ATCC 11632 assessed as bacterial growth inhibition measured after 24 to 48 hrs by agar dilution assay. Format: functional. The following applies: time 24-48 hrs.
Assay [30] can be described thus: Anticancer activity against EAC cell assessed as cell growth inhibition measured after 24 to 72 hrs by MTT assay. Format: functional, cell-based. The following applies: Ehrlich.
In assay [31] the test system is MCF7. As to the kind of experiment: Anticancer activity against human MCF7 cell assessed as cell growth inhibition measured after 24 to 72 hrs by MTT assay. Format: functional, cell-based.
Assay [32] deals with HT-29. As to the kind of experiment: Anticancer activity against human HT-29 cell assessed as cell growth inhibition measured after 24 to 72 hrs by MTT assay. Format: functional, cell-based.
For assay [33], the system named is WRL68. As to the kind of experiment: Anticancer activity against human WRL68 cell assessed as cell growth inhibition measured after 24 to 72 hrs by MTT assay. Format: functional, cell-based.
In assay [34] the test system is Escherichia coli. As to the kind of experiment: Antibacterial activity against Escherichia coli assessed as bacterial growth inhibition by broth microdilution assay. Format: functional.
Assay [35] relates to Acinetobacter baumannii. As to the kind of experiment: Antibacterial activity against Acinetobacter baumannii assessed as bacterial growth inhibition by broth microdilution assay. Format: functional.
Assay [36] deals with Klebsiella pneumoniae. The experiment in a line: Antibacterial activity against Klebsiella pneumoniae assessed as bacterial growth inhibition by broth microdilution assay. Format: functional.

In brackets after ≈: the same amount, converted by molar mass.

On to `CCOP(=O)(OCC)C(NS(=O)(=O)Nc1ccccc1OC)c1cc2cccc(C)c2[nH]c1=O` (stereo not given), for which the MIC in assay [1], in [2], in assay [3], in assay [4], in [5] and in assay [6] was 0.125 µg/mL (≈ 0.245 µM) in each case. Also, the MIC in assay [7] and in [8] was 0.125 µg/mL (≈ 0.245 µM) in each case.
Turning to `O=C(CSc1nnc(N2CCN(c3cc4c(cc3F)c(=O)c(C(=O)O)cn4C3CC3)CC2)s1)c1ccc([N+](=O)[O-])cc1`, the Ratio in [9] was 2; in assay [12] it was 2; in assay [13] it was 3. The MIC in assay [10] was found to be 1 µg/mL (≈ 1.64 µM); in [11], 0.5 µg/mL (≈ 0.819 µM).
On to `Cc1ccc(/N=C(\N2CCN(c3cc4c(cc3F)c(=O)c(C(=O)O)cn4C3CC3)CC2)C(F)(F)F)cc1`, for which the MIC in [14], in assay [15], in assay [16], in assay [17] and in assay [18] was 0.039 µg/mL (≈ 0.0755 µM) throughout.
As to `COc1c(N2C[C@H]3CCCN(C(=O)Cn4cc(CN5C(=O)C(=O)c6ccccc65)nn4)[C@H]3C2)c(F)cc2c(=O)c(C(=O)O)cn(C3CC3)c12`, the MIC in assay [19], in assay [20], in assay [21], in assay [22], in assay [23] and in assay [24] was at most 0.03 µg/mL throughout.
On to `COc1c(N2CCCC(N(C)C(=O)c3cccnc3)C2)c(F)cc2c(=O)c(C(=O)O)cn(C3CC3)c12` (stereo not given), for which the MIC in [25] and in [26] was 0.078 µg/mL (≈ 0.158 µM) in each case.
For `CCCCC(=O)N(CCNCCNc1ccc(CN2CCN(c3cc4c(cc3F)CC(C(=O)O)=CN4C3CC3)CC2)cc1)CCN(CCN(CCN(CCN(CCN(CCN(CCN(CCN(CCN(CCN(CCN(CCN(CCN(CCN(CCN(CCN(CCN(CCN(CCN(CCN(CCN(CCN(CCN(CCN(CCN(CCN(CCN(CCN(CCN(CCNC(C)=O)C(C)=O)C(C)=O)C(C)=O)C(C)=O)C(C)=O)C(C)=O)C(C)=O)C(C)=O)C(C)=O)C(C)=O)C(C)=O)C(C)=O)C(C)=O)C(C)=O)C(=O)CCCC)C(=O)CCCC)C(=O)CCCC)C(=O)CCCC)C(=O)CCCC)C(=O)CCCC)C(=O)CCCC)C(=O)CCCC)C(=O)CCCC)C(=O)CCCC)C(=O)CCCC)C(=O)CCCC)C(=O)CCCC)C(=O)CCCC)C(=O)CCCC`, the MIC in [27] turned out to be 0.62 µg/mL (≈ 0.164 µM).
`O=C(CNc1ccc(-c2nc3ccc(Cl)c(Cl)c3s2)cc1)c1c(O)c2ccccc2n(-c2ccccc2)c1=O`: the MIC was found to be 0.5 µg/mL (≈ 0.873 µM) in [28] and 1 µg/mL (≈ 1.75 µM) in assay [29]. The IC50 in [30], in assay [31], in assay [32] and in [33] was 398 nM throughout.
In the case of `Cc1[nH]c(C(=O)Nc2nc3ccc(NC(=O)CCN4CCN(c5cc6c(cc5F)c(=O)c(C(=O)O)cn6C5CC5)CC4)cc3s2)c(Cl)c1Cl`, the MIC in [34] was 0.004 µg/mL (≈ 0.0055 µM); in assay [19] it was 0.25 µg/mL (≈ 0.344 µM); in assay [35], 0.25 µg/mL (≈ 0.344 µM); in assay [36] it was 0.25 µg/mL (≈ 0.344 µM).
As to `CCOP(=O)(OCC)C(NS(=O)(=O)Nc1ccc(F)cc1)c1cc2cccc(C)c2[nH]c1=O` (stereo not given), the MIC in assay [1], in [2], in assay [3], in [4], in assay [5] and in [6] was 0.5 µg/mL (≈ 1.01 µM) throughout. Also, the MIC in assay [7] and in assay [8] was 0.125 µg/mL (≈ 0.251 µM) throughout.

(Values after ChEMBL document CHEMBL5360532, “Current scenario of quinolone hybrids with potential antibacterial activity against ESKAPE pathogens” (Eur J Med Chem, 2023).)
